Source: US10166216B2 (Rigel Pharmaceuticals, Inc., priority 2006, dated 2019)

target: Axl (Homo sapiens (Human), UniProt P30530); experiment: Phospho-Akt in-cell Western assay (Axl-antibody cross-linking stimulation); type: cell-based; conditions: inhibition of Axl activity, Hela cells, phospho-Akt readout; Table 1, formula (Ia1)
In short: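 HeLa cells on poly-L-lysine, starved 24 hrs with Axl/Fc, pre-treated with compound 1 hr at 37° C., then stimulated 5 min with Axl primary/secondary antibody cluster. Fixed cells probed for phospho-Akt by chemiluminescent in-cell Western; signal normalized to crystal violet cell number.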

Axl, sequence (P30530 26-894): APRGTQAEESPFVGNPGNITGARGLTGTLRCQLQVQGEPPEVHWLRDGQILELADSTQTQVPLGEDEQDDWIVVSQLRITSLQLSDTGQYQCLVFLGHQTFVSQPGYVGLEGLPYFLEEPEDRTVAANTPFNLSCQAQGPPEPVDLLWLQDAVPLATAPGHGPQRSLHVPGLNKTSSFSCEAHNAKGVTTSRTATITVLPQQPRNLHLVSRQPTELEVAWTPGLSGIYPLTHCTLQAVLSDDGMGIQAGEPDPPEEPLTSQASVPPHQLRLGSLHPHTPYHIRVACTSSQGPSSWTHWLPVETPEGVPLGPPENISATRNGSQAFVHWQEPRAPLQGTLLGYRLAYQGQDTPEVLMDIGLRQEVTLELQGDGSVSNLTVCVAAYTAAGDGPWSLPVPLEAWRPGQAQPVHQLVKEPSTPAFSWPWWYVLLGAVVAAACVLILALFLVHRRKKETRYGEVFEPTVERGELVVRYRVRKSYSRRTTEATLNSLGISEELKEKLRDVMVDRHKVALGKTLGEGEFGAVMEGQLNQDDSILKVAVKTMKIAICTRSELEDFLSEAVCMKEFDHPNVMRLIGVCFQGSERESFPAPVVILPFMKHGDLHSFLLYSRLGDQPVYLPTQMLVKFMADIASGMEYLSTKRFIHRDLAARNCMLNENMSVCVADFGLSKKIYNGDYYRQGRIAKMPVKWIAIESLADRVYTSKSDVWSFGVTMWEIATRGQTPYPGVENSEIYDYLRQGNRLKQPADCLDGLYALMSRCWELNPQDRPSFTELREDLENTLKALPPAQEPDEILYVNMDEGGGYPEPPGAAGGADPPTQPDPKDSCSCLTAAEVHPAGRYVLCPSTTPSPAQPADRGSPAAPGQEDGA

| IC50 [nM] | SMILES |
| --- | --- |
| < 1000 | Nc1nc(Nc2ccc(OCCN3CCCC3)cc2)nn1-c1nc(Cl)nc2c1CCC2 [Compound 49, 1-(2-chloro-6,7-dihydro-5H-cyclopenta[d]pyrimidin-4-yl)-N^3-(4-(2-(pyrrolidin-1-yl)ethoxy)phenyl)-1H-1,2,4-triazole-3,5-diamine] |
| > 20000 | Nc1nc(Nc2ccc(OCCN3CCCC3)cc2)nn1-c1ncccn1 [Compound 47, 1-(pyrimidin-2-yl)-N^3-(4-(2-(pyrrolidin-1-yl)ethoxy)phenyl)-1H-1,2,4-triazole-3,5-diamine] |
| 1000 to 10000 | COC(=O)C1CCCN1CCOc1ccc(Nc2nc(N)n(-c3cnc4ccccc4n3)n2)cc1 (stereo not shown) [Compound 33, methyl 1-(2-(4-(5-amino-1-(quinoxalin-2-yl)-1H-1,2,4-triazol-3-ylamino)phenoxy)ethyl)-pyrrolidine-2-carboxylate] |
| < 1000 | Nc1nc(Nc2ccc(OCCN3CCCC3)c(F)c2)nn1-c1cnc2ccccc2n1 [Compound 55, N^3-(3-fluoro-4-(2-(pyrrolidin-1-yl)ethoxy)phenyl)-1-(quinoxalin-2-yl)-1H-1,2,4-triazole-3,5-diamine] |
| < 1000 | Nc1nc(Nc2ccc(OCCN3CCCC3)c(Cl)c2)nn1-c1nccc2ccccc12 [Compound 62, N^3-(3-chloro-4-(2-(pyrrolidin-1-yl)ethoxy)phenyl)-1-(isoquinolin-1-yl)-1H-1,2,4-triazole-3,5-diamine] |
| > 20000 | CC1CCCN1CCOc1ccc(Nc2nc(N)n(-c3ccccc3F)n2)cc1 (stereo not shown) [Compound 27, 1-(2-fluorophenyl)-N^3-(4-(2-(2-methylpyrrolidin-1-yl)ethoxy)phenyl)-1H-1,2,4-triazole-3,5-diamine] |
| < 1000 | Nc1nc(Nc2ccc(OCCN3CCCC3)cc2)nn1-c1ncnc2sccc12 [Compound 51, N^3-(4-(2-(pyrrolidin-1-yl)ethoxy)phenyl)-1-(thieno[2,3-d]pyrimidin-4-yl)-1H-1,2,4-triazole-3,5-diamine] |
| 1000 to 10000 | Nc1nc(Nc2ccc(OCCN3CCCC3)cc2)nn1-c1nc(N2CCOCC2)nc2ccccc12 [Compound 38, 1-(2-morpholinoquinazolin-4-yl)-N^3-(4-(2-(pyrrolidin-1-yl)ethoxy)phenyl)-1H-1,2,4-triazole-3,5-diamine] |
| < 1000 | Nc1nc(Nc2ccc(OCCN3CCCC3)cc2)nn1-c1nc(Cl)nc2ccccc12 [Compound 37, 1-(2-chloroquinazolin-4-yl)-N^3-(4-(2-(pyrrolidin-1-yl)ethoxy)phenyl)-1H-1,2,4-triazole-3,5-diamine] |
| < 1000 | Cn1c(-n2nc(Nc3ccc(OCCN4CCCC4)c(Cl)c3)nc2N)nc2ccccc21 [Compound 40, N^3-(3-chloro-4-(2-(pyrrolidin-1-yl)ethoxy)phenyl)-1-(1-methyl-1H-benzo[d]imidazol-2-yl)-1H-1,2,4-triazole-3,5-diamine] |
| > 20000 | Nc1nc(Nc2ccc(OCCN3CCCC3)cc2)nn1-c1ccc(Br)cn1 [Compound 32, 1-(5-bromopyridin-2-yl)-N^3-(4-(2-(pyrrolidin-1-yl)ethoxy)phenyl)-1H-1,2,4-triazole-3,5-diamine] |
| > 20000 | COc1cc2c(-n3nc(Nc4ccc(OCCN5CCCC5)cc4)nc3N)ncnc2cc1OCc1ccccc1 [Compound 104, 1-(7-(benzyloxy)-6-methoxyquinazolin-4-yl)-N^3-(4-(2-(pyrrolidin-1-yl)ethoxy)phenyl)-1H-1,2,4-triazole-3,5-diamine] |
| < 1000 | Nc1nc(Nc2ccc(OCCN3CCCC3)c(F)c2)nn1-c1nccc2ccccc12 [Compound 58, N^3-(3-fluroo-4-(2-(pyrrolidin-1-yl)ethoxy)phenyl)-1-(isoquinolin-1-yl)-1H-1,2,4-triaozle-3,5-diamine] |

same assay, conditions: inhibition of Axl activity, Hela cells, phospho-Akt readout; Table 4, formula (Ib2)

| IC50 [nM] | SMILES |
| --- | --- |
| < 1000 | Nc1nc(Nc2ccc(N3CCN(C4CCCC4)CC3)c(F)c2)n(-c2nc3ccccc3c3ccccc23)n1 [Compound 205, 1-(phenanthridin-6-yl)-N^5-(3-fluoro-4-(4-cyclopentylpiperazin-1-yl)phenyl)-1H-1,2,4-triazole-3,5-diamine] |

same assay, conditions: inhibition of Axl activity, Hela cells, phospho-Akt readout; Table 5, formula (Ia3)

| IC50 [nM] | SMILES |
| --- | --- |
| < 1000 | Cc1csc2c(-n3nc(Nc4ccc(C5CCN(C6CC7CCC6C7)CC5)cc4)nc3N)ncnc12 (stereo not shown) [Compound 261, 1-(7-methylthieno[3,2-d]pyrimidin-4-yl)-N^3-(4-(1-(bicyclo[2.2.1]heptan-2-yl)piperidin-4-yl)phenyl)-1H-1,2,4-triazole-3,5-diamine] |
| > 20000 | CCOC(=O)c1ccc(Nc2nc(N)n(-c3ccnc(Cl)c3)n2)cc1 [Compound 143, ethyl 4-(5-amino-1-(2-chloropyridin-4-yl)-1H-1,2,4-triazol-3-ylamino)benzoate] |
| > 20000 | COc1cc2ncnc(-n3nc(Nc4ccc(N5Cc6ccccc6C5)c(F)c4)nc3N)c2cc1OC [Compound 216, 1-(6,7-dimethoxyquinazolin-4-yl)-N^3-(3-fluoro-4-(isoindolin-2-yl)phenyl)-1H-1,2,4-triazole-3,5-diamine] |

same assay, conditions: inhibition of Axl activity, Hela cells, phospho-Akt readout; Table 7, formula (Ia4)

| IC50 [nM] | SMILES |
| --- | --- |
| < 1000 | Cc1csc2c(-n3nc(Nc4ccc5c(c4)CCC(N4CCCC4)CC5)nc3N)nc(Cl)nc12 (stereo not shown) [Compound 219, 1-(7-methyl-2-chlorothieno[3,2-d]pyrimidin-4-yl)-N^3-(7-pyrrolidin-1-yl-6,7,8,9-tetrahydro-5H-benzo[7]annulene-2-yl)-1H-1,2,4-triazole-3,5-diamine] |

same assay, conditions: inhibition of Axl activity, phospho-Akt in-cell Western assay

| IC50 [nM] | SMILES |
| --- | --- |
| < 1000 | Cc1csc2c(-n3nc(Nc4ccc(N5CCN([C@H]6C[C@@H]7CC[C@H]6C7)CC5)c(Cl)c4)nc3N)ncnc12 [Compound 242, 1-(7-methylthieno[3,2-d]pyrimidin-4-yl)-N^3-(3-chloro-4-(4-((1S,2S,4R)-bicyclo[2.2.1]heptan-2-yl)piperazin-1-yl)phenyl)-1H-1,2,4-triazole-3,5-diamine] |
| 1000 to 10000 | Nc1nc(Nc2ccc(N3CCN(C4CC5CCC4C5)CC3)cc2)nn1-c1ccccn1 (stereo not shown) [Compound 94, N^3-(4-(4-(bicyclo[2.2.1]heptan-2-yl)piperazin-1-yl)phenyl)-1-(pyridin-2-yl)-1H-1,2,4-triazole-3,5-diamine] |
| < 1000 | Nc1nc(Nc2ccc(N3CCN(C4CC5CCC4C5)CC3)c(F)c2)nn1-c1ncnc2sccc12 (stereo not shown) [Compound 196, 1-(thieno[2,3-d]pyrimidin-4-yl)-N^3-(3-fluoro-4-(4-(bicyclo[2.2.1]heptan-2-yl)-piperazin-1-yl)phenyl)-1H-1,2,4-triazole-3,5-diamine] |
| < 1000 | Cc1nnc(-n2nc(Nc3ccc(N4CCN([C@H]5C[C@@H]6CC[C@H]5C6)CC4)c(F)c3)nc2N)c2sccc12 [Compound 226, 1-(4-methylthieno[3,2-d]pyridazin-7-yl)-N^3-(3-fluoro-4-(4-((1S,2S,4R)-bicyclo[2.2.1]heptan-2-yl)piperazin-1-yl)phenyl)-1H-1,2,4-triazole-3,5-diamine] |
| < 1000 | Cc1csc2c(-n3nc(Nc4ccc(N5CCN(C6CC7CCC6C7)[C@H](C)C5)c(F)c4)nc3N)ncnc12 (stereo partly drawn) [Compound 248, 1-(7-methylthieno[3,2-d]pyrimidin-4-yl)-N^3-(3-fluoro-4-(3-(R)-methyl-4-(bicyclo[2.2.1]heptan-2-yl)piperazin-1-yl)phenyl)-1H-1,2,4-triazole-3,5-diamine] |
| > 20000 | Cc1csc2c(-n3nc(Nc4ccc(N5CCN([C@H]6CC7CCC6C7)CC5)cc4)nc3N)nc(-c3ccc4c(c3)OCO4)nc12 (stereo partly drawn) [Compound 236, 1-(7-methyl-2-benzo[d][1,3]dioxole-5-ylthieno[3,2-d]pyrimidin-4-yl)-N^3-(4-(4-((2S)-bicyclo[2.2.1]heptan-2-yl)piperazin-1-yl)phenyl)-1H-1,2,4-triazole-3,5-diamine] |
| 1000 to 10000 | Cc1sc2ncnc(-n3nc(Nc4ccc(N5CCN(C6CC7CCC6C7)CC5)cc4)nc3N)c2c1C (stereo not shown) [Compound 138, N^3-(4-(4-(bicyclo[2.2.1]heptan-2-yl)piperazin-1-yl)phenyl)-1-(5,6-dimethylthieno[2,3-d]pyrimidin-4-yl)-1H-1,2,4-triazole-3,5-diamine] |
| < 1000 | Cc1cc(Nc2nc(N)n(-c3ncnc4c(C)csc34)n2)ccc1N1CCN([C@H]2C[C@@H]3CC[C@H]2C3)[C@@H](C)C1 [Compound 253, 1-(7-methylthieno[3,2-d]pyrimidin-4-yl)-N^3-(3-methyl-4-(3-(S)-methyl-4-((1S,2S,4R)-bicyclo[2.2.1]heptan-2-yl)piperazin-1-yl)phenyl)-1H-1,2,4-triazole-3,5-diamine] |
| 1000 to 10000 | Nc1nc(Nc2ccc(N3CCN(C4CC5CCC4C5)CC3)cc2)nn1-c1ncnc2cc(-c3ccccc3)sc12 (stereo not shown) [Compound 129, N^3-(4-(4-(bicyclo[2.2.1]heptan-2-yl)piperazin-1-yl)phenyl)-1-(6-phenylthieno[3,2-d]pyrimidin-4-yl)-1H-1,2,4-triazole-3,5-diamine] |

Second part, the molecule before the results:

| SMILES | IC50 [nM] |
| --- | --- |
| Nc1nc(Nc2ccc(N3CCN(C4CCCCC4)CC3)cc2)nn1-c1ncc2c(n1)-c1ccccc1CC2 [Compound 93, N^3-(4-(4-cyclohexylpiperazin-1-yl)phenyl)-1-(5,6-dihydrobenzo[h]quinazolin-2-yl)-1H-1,2,4-triazole-3,5-diamine] | < 1000 |
| COc1cc2ncnc(-n3nc(Nc4ccc(N5CCN(C(C)=O)CC5)cc4)nc3N)c2cc1OC [Compound 107, 1-(4-(4-(5-amino-1-(6,7-dimethoxyquinazolin-4-yl)-1H-1,2,4-triazol-3-ylamino)phenyl)piperazin-1-yl)ethanone] | < 1000 |
| COc1cc2ccnc(-n3nc(Nc4ccc(N5CCN(C6CC7CCC6C7)CC5)cc4)nc3N)c2cc1OC (stereo not shown) [Compound 125, N^3-(4-(4-(bicyclo[2.2.1]heptan-2-yl)piperazin-1-yl)phenyl)-1-(6,7-dimethoxyisoquinolin-1-yl)-1H-1,2,4-triazole-3,5-diamine] | < 1000 |
| COc1cc2ncnc(-n3nc(Nc4ccc(N5CCN(C)CC5)c(C(N)=O)c4)nc3N)c2cc1OC [Compound 121, 5-(5-amino-1-(6,7-dimethoxyquinazolin-4-yl)-1H-1,2,4-triazol-3-ylamino)-2-(4-methylpiperazin-1-yl)benzamide] | 1000 to 10000 |
